Data published in US7723071B2 (priority 1992, dated 2010).
Peptide text beside a SMILES is read from it.

Legend:
[1] = biological target: T1, DOR-2 (mMOR-1) mu receptor (Mus musculus, UniProt P42866, H54D/R258Q/R47P/S53N/V245G); type: binding, murine
T1 construct: expressed in transfected cells

[2] = biological target: DOR-1 clone (delta opioid receptor) (Mus musculus, UniProt P32300, V68C)
[3] = biological target: receptor encoded by the DOR-1 clone (delta opioid receptor) (Mus musculus, UniProt P32300, V68C)
receptor encoded by the DOR-1 clone (delta opioid receptor), sequence (P32300 whole entry V68C): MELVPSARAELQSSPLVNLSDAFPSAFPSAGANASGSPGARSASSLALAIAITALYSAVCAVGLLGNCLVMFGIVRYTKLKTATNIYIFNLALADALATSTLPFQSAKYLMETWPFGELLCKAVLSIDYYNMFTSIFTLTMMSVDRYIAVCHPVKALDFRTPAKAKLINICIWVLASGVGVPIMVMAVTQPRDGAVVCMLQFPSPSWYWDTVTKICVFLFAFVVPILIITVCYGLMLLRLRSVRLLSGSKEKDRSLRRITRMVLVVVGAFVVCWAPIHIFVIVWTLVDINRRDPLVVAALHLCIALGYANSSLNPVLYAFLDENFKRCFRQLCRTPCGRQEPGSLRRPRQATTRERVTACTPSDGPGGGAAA

T1 sequence (P42866 whole entry R47P/S53N/H54D/V245G/R258Q): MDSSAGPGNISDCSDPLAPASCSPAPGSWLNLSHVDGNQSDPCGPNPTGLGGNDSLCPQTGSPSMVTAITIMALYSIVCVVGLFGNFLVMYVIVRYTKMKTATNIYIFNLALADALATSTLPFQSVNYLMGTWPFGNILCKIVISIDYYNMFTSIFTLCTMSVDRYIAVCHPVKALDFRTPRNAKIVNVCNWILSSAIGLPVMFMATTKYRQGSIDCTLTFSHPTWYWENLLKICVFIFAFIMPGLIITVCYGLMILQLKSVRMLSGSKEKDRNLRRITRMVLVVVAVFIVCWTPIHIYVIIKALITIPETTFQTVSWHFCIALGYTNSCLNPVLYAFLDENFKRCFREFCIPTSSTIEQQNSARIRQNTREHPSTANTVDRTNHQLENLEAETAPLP
DOR-1 clone (delta opioid receptor), sequence (P32300 whole entry V68C): as the sequence (P32300 whole entry V68C) above
From the text for opiate receptors: The purification of mono-iodinated from di-iodinated and non-iodinated DADLE by the HPLC step yields a ligand with very high specific activity (approximately 2000 Ci/mmol).

| Compound | displacement of 3H-DPN [1] | displacement of 125I-DADLE binding [2] | displacement of 3H-diprenorphine [3] | displacement of 3H-diprenorphine, rank in decreasing order of affinity [3] | binding affinity compared with DADLE (opiate receptors) |
| --- | --- | --- | --- | --- | --- |
| C[C@@H](NC(=O)[C@@H](N)Cc1ccc(O)cc1)C(=O)NCC(=O)N(C)[C@@H](Cc1ccccc1)C(=O)NCCO [DAGO, D-Alka^2-N-MePhe^4-Gly-ol^5-enkephalin] | displacement of ^3H-DPN by nanomolar concentrations | did not displace | Only weak displacement |  |  |
| CN1CC[C@]23CCCC[C@H]2[C@H]1Cc1ccc(O)cc13 [levorphanol] |  | did displace | displaced | in decreasing order of affinity, was observed with diprenorphine, etorphine, levorphanol and morphine |  |
| NC(=O)[C@@H]1CCCN1C(=O)[C@H](Cc1ccccc1)NC(=O)[C@@H]1CCCN1C(=O)[C@@H](N)Cc1ccc(O)cc1 [morphiceptin] (H-YPFP-NH2) | displacement of ^3H-DPN by nanomolar concentrations |  |  |  |  |
| mono-^125I-2dAla, 5dLeu enkephalin [^125I-DADLE] |  |  |  |  | slightly lower |
